Laboratory results: PubChem BioAssay (NCI)
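A five-concentration, 48-hour dose response in 96-well plates underlies each endpoint, interpolated linearly between surrounding concentrations. The concentration for 50% growth inhibition is given as GI50. TGI: concentration producing complete growth inhibition.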

Tests used:
Test in all cases: DTP human tumour cell line panel, 48 h; in the data active = GI50 below about 0.43 µM; inactive = the rest
HT29 colon = tested on: HT29 colon
U251 CNS = tested on: U251 CNS
SNB-19 CNS = tested on: SNB-19 CNS
HL-60(TB) leukemia = tested on: HL-60(TB) leukemia
SN12C renal = tested on: SN12C renal
TK-10 renal = tested on: TK-10 renal
HCT-116 colon = tested on: HCT-116 colon
UACC-257 melanoma = tested on: UACC-257 melanoma
SK-MEL-28 melanoma = tested on: SK-MEL-28 melanoma
UACC-62 melanoma = tested on: UACC-62 melanoma
OVCAR-5 ovarian = tested on: OVCAR-5 ovarian
SNB-75 CNS = tested on: SNB-75 CNS
SW-620 colon = tested on: SW-620 colon
SK-OV-3 ovarian = tested on: SK-OV-3 ovarian
NCI-H226 lung = tested on: NCI-H226 lung
A498 renal = tested on: A498 renal
HOP-62 NSCLC = tested on: HOP-62 NSCLC
PC-3 prostate = tested on: PC-3 prostate
ACHN renal = tested on: ACHN renal
A549 NSCLC = tested on: A549 NSCLC
SF-295 CNS = tested on: SF-295 CNS
SK-MEL-2 melanoma = tested on: SK-MEL-2 melanoma
COLO 205 colon = tested on: COLO 205 colon
HOP-92 NSCLC = tested on: HOP-92 NSCLC
HCT-15 colon = tested on: HCT-15 colon
SK-MEL-5 melanoma = tested on: SK-MEL-5 melanoma
MDA-MB-435 = tested on: MDA-MB-435
SF-268 CNS = tested on: SF-268 CNS
BT-549 breast = tested on: BT-549 breast
T-47D breast = tested on: T-47D breast
OVCAR-3 ovarian = tested on: OVCAR-3 ovarian
RXF 393 renal = tested on: RXF 393 renal
MALME-3M melanoma = tested on: MALME-3M melanoma
DU-145 prostate = tested on: DU-145 prostate
SF-539 CNS = tested on: SF-539 CNS
NCI-H522 lung = tested on: NCI-H522 lung
IGROV1 ovarian = tested on: IGROV1 ovarian
UO-31 renal = tested on: UO-31 renal
EKVX NSCLC = tested on: EKVX NSCLC
CCRF-CEM leukemia = tested on: CCRF-CEM leukemia
MCF7 breast = tested on: MCF7 breast
MDA-MB-231 breast = tested on: MDA-MB-231 breast
OVCAR-8 ovarian = tested on: OVCAR-8 ovarian
NCI/ADR-RES ovarian = tested on: NCI/ADR-RES ovarian
LOX IMVI melanoma = tested on: LOX IMVI melanoma
M14 melanoma = tested on: M14 melanoma
RPMI-8226 leukemia = tested on: RPMI-8226 leukemia
CAKI-1 renal = tested on: CAKI-1 renal
HCC-2998 colon = tested on: HCC-2998 colon
786-0 renal = tested on: 786-0 renal
MOLT-4 leukemia = tested on: MOLT-4 leukemia
HS 578T breast = tested on: HS 578T breast
K-562 leukemia = tested on: K-562 leukemia
NCI-H23 lung = tested on: NCI-H23 lung
NCI-H460 lung = tested on: NCI-H460 lung
KM12 colon = tested on: KM12 colon
OVCAR-4 ovarian = tested on: OVCAR-4 ovarian
SR leukemia = tested on: SR leukemia

COc1cc(NCCCCCCCNC(C)C)c2nccc(C)c2c1
22.4 µM: TGI (MDA-MB-231 breast)
19.9 µM: TGI (HCT-116 colon)
34.8 µM: TGI (MALME-3M melanoma)
26.5 µM: TGI (EKVX NSCLC)
8.89 µM: TGI (OVCAR-3 ovarian)
27.5 µM: TGI (NCI-H460 lung)
32.1 µM: TGI (SK-MEL-28 melanoma)
34.2 µM: TGI (UACC-257 melanoma)
28.6 µM: TGI (SW-620 colon) | TGI (786-0 renal)
29.6 µM: TGI (A498 renal) | TGI (SF-295 CNS)
24.3 µM: TGI (SNB-75 CNS)
33.7 µM: TGI (RXF 393 renal)
16.4 µM: TGI (HT29 colon)
21.2 µM: TGI (MDA-MB-435)
23.9 µM: TGI (HL-60(TB) leukemia) | TGI (PC-3 prostate)
30 µM: TGI (SNB-19 CNS)
32.7 µM: TGI (TK-10 renal)
27.9 µM: TGI (KM12 colon)
24.2 µM: TGI (U251 CNS)
35 µM: TGI (NCI-H522 lung)
inactive: GI50 (HT29 colon) 4.29 µM | GI50 (U251 CNS) 11 µM | GI50 (SNB-19 CNS) 16 µM | GI50 (HL-60(TB) leukemia) 6.94 µM | GI50 (SN12C renal) 12.2 µM | GI50 (TK-10 renal) 17.1 µM | GI50 (HCT-116 colon) 6.95 µM | GI50 (UACC-257 melanoma) 18.2 µM | GI50 (SK-MEL-28 melanoma) 17.7 µM | GI50 (UACC-62 melanoma) 4.88 µM | GI50 (OVCAR-5 ovarian) 15.4 µM | GI50 (SNB-75 CNS) 11.7 µM | GI50 (SW-620 colon) 12.6 µM | GI50 (SK-OV-3 ovarian) 13.7 µM | GI50 (NCI-H226 lung) 14.6 µM | GI50 (A498 renal) 15.3 µM | GI50 (HOP-62 NSCLC) 13.8 µM | GI50 (PC-3 prostate) 10.5 µM | GI50 (ACHN renal) 14.2 µM | GI50 (A549 NSCLC) 18.8 µM | GI50 (SF-295 CNS) 14.1 µM | GI50 (SK-MEL-2 melanoma) 20 µM | GI50 (COLO 205 colon) 2.34 µM | GI50 (HOP-92 NSCLC) 10.7 µM | GI50 (HCT-15 colon) 12.2 µM | GI50 (SK-MEL-5 melanoma) 11.9 µM | GI50 (MDA-MB-435) 6.95 µM | GI50 (SF-268 CNS) 16.3 µM | GI50 (BT-549 breast) 17.7 µM | GI50 (T-47D breast) 5.44 µM | GI50 (OVCAR-3 ovarian) 2.96 µM | GI50 (RXF 393 renal) 15.4 µM | GI50 (MALME-3M melanoma) 17.3 µM | GI50 (DU-145 prostate) 17 µM | GI50 (SF-539 CNS) 13.7 µM | GI50 (NCI-H522 lung) 16 µM | GI50 (IGROV1 ovarian) 13.3 µM | GI50 (UO-31 renal) 7.41 µM | GI50 (EKVX NSCLC) 10.9 µM | GI50 (CCRF-CEM leukemia) 12.1 µM | GI50 (MCF7 breast) 2.68 µM | GI50 (MDA-MB-231 breast) 9.45 µM | GI50 (OVCAR-8 ovarian) 15.2 µM | GI50 (NCI/ADR-RES ovarian) 14.3 µM | GI50 (LOX IMVI melanoma) 7.03 µM | GI50 (M14 melanoma) 7.38 µM | GI50 (RPMI-8226 leukemia) 4.79 µM | GI50 (CAKI-1 renal) 12.2 µM | GI50 (HCC-2998 colon) 6.29 µM | GI50 (786-0 renal) 14.8 µM | GI50 (MOLT-4 leukemia) 6.95 µM | GI50 (HS 578T breast) 17.4 µM | GI50 (K-562 leukemia) 3.46 µM | GI50 (NCI-H23 lung) 12.1 µM | GI50 (NCI-H460 lung) 12.2 µM | GI50 (KM12 colon) 13.7 µM | GI50 (OVCAR-4 ovarian) 4.08 µM
15.6 µM: TGI (OVCAR-4 ovarian)
33.5 µM: TGI (BT-549 breast) | TGI (OVCAR-8 ovarian)
23 µM: TGI (UO-31 renal) | TGI (MOLT-4 leukemia)
23.8 µM: TGI (HOP-92 NSCLC)
27.1 µM: TGI (SK-OV-3 ovarian)
26.2 µM: TGI (NCI-H23 lung)
21.5 µM: TGI (LOX IMVI melanoma)
19.8 µM: TGI (T-47D breast)
20.7 µM: TGI (M14 melanoma)
28.4 µM: TGI (NCI/ADR-RES ovarian)
19 µM: TGI (HCC-2998 colon)
27.6 µM: TGI (HOP-62 NSCLC)
6.54 µM: TGI (COLO 205 colon)
29.7 µM: TGI (OVCAR-5 ovarian)
27.3 µM: TGI (HCT-15 colon)
38.3 µM: TGI (A549 NSCLC) | TGI (SK-MEL-2 melanoma)
10.8 µM: TGI (MCF7 breast)
26.8 µM: TGI (SF-539 CNS)
25.7 µM: TGI (SN12C renal)
20.4 µM: TGI (RPMI-8226 leukemia)
24.6 µM: TGI (SK-MEL-5 melanoma)
34.5 µM: TGI (IGROV1 ovarian)
14.6 µM: TGI (K-562 leukemia)
33 µM: TGI (CCRF-CEM leukemia)
27.8 µM: TGI (ACHN renal)
31.4 µM: TGI (DU-145 prostate)
25.6 µM: TGI (CAKI-1 renal)
39.7 µM: TGI (HS 578T breast)
31.9 µM: TGI (SF-268 CNS)
34.3 µM: TGI (NCI-H226 lung)
17.6 µM: TGI (UACC-62 melanoma)

CCC(C(=O)C(=O)OC)P1(=O)OC(C)(C)CN1C(C)(C)C (stereo unspecified)
> 100 µM: TGI (HT29 colon) | TGI (U251 CNS) | TGI (SNB-19 CNS) | TGI (TK-10 renal) | TGI (HCT-116 colon) | TGI (UACC-257 melanoma) | TGI (SK-MEL-28 melanoma) | TGI (OVCAR-5 ovarian) | TGI (SNB-75 CNS) | TGI (SW-620 colon) | TGI (SK-OV-3 ovarian) | TGI (NCI-H226 lung) | TGI (HOP-62 NSCLC) | TGI (PC-3 prostate) | TGI (ACHN renal) | TGI (A549 NSCLC) | TGI (SF-295 CNS) | TGI (SK-MEL-2 melanoma) | TGI (COLO 205 colon) | TGI (HCT-15 colon) | TGI (SK-MEL-5 melanoma) | TGI (MDA-MB-435) | TGI (SF-268 CNS) | TGI (BT-549 breast) | TGI (T-47D breast) | TGI (OVCAR-3 ovarian) | TGI (MALME-3M melanoma) | TGI (DU-145 prostate) | TGI (SF-539 CNS) | TGI (IGROV1 ovarian) | TGI (UO-31 renal) | TGI (EKVX NSCLC) | TGI (MCF7 breast) | TGI (SR leukemia) | TGI (MDA-MB-231 breast) | TGI (OVCAR-8 ovarian) | TGI (NCI/ADR-RES ovarian) | TGI (LOX IMVI melanoma) | TGI (M14 melanoma) | TGI (RPMI-8226 leukemia) | TGI (CAKI-1 renal) | TGI (HCC-2998 colon) | TGI (786-0 renal) | TGI (MOLT-4 leukemia) | TGI (K-562 leukemia) | TGI (NCI-H23 lung) | TGI (NCI-H460 lung) | TGI (KM12 colon) | TGI (OVCAR-4 ovarian)
60.4 µM: TGI (UACC-62 melanoma)
53.1 µM: TGI (A498 renal)

CC(=O)OC(Cn1cncn1)(Cn1cncn1)c1ccc(Cl)cc1Cl
> 100 µM: TGI (HT29 colon) | TGI (U251 CNS) | TGI (SNB-19 CNS) | TGI (HL-60(TB) leukemia) | TGI (TK-10 renal) | TGI (UACC-257 melanoma) | TGI (SK-MEL-28 melanoma) | TGI (OVCAR-5 ovarian) | TGI (SNB-75 CNS) | TGI (SW-620 colon) | TGI (SK-OV-3 ovarian) | TGI (NCI-H226 lung) | TGI (A498 renal) | TGI (HOP-62 NSCLC) | TGI (PC-3 prostate) | TGI (A549 NSCLC) | TGI (SF-295 CNS) | TGI (SK-MEL-2 melanoma) | TGI (COLO 205 colon) | TGI (HOP-92 NSCLC) | TGI (HCT-15 colon) | TGI (SK-MEL-5 melanoma) | TGI (MDA-MB-435) | TGI (SF-268 CNS) | TGI (BT-549 breast) | TGI (T-47D breast) | TGI (OVCAR-3 ovarian) | TGI (RXF 393 renal) | TGI (DU-145 prostate) | TGI (SF-539 CNS) | TGI (NCI-H522 lung) | TGI (IGROV1 ovarian) | TGI (UO-31 renal) | TGI (EKVX NSCLC) | TGI (CCRF-CEM leukemia) | TGI (MCF7 breast) | TGI (MDA-MB-231 breast) | TGI (OVCAR-8 ovarian) | TGI (NCI/ADR-RES ovarian) | TGI (LOX IMVI melanoma) | TGI (M14 melanoma) | TGI (RPMI-8226 leukemia) | TGI (CAKI-1 renal) | TGI (HCC-2998 colon) | TGI (786-0 renal) | TGI (MOLT-4 leukemia) | TGI (HS 578T breast) | TGI (K-562 leukemia) | TGI (NCI-H460 lung) | TGI (KM12 colon) | TGI (OVCAR-4 ovarian)
